Assay results reported in patent publication US20090069319A1, “IMIDAZOPYRIDINE ANALOGS AND THEIR USE AS AGONISTS OF THE WNT-BETA-CATENIN CELLULAR MESSAGING SYSTEM” (Wyeth, priority 2007, published 2009).

Test: Functional Dkk1-LRP5-TCF-Luciferase Assay in U2OS Cells (table columns: A=MAX FOLD Induction/DMSO CONTROL; B=fold induction @ 2.0 uM; C=fold induction @ 20.0 uM)
Type: cell-based, Human
Conditions: Homo sapiens, U2OS; for fold induction at 2 µM: 2.0 uM compound; for fold induction at 20 µM: 20.0 uM compound
Experimental: Biological Evaluation—Functional Dkk1-LRP5-TCF-Luciferase Assay in U2OS Cells
U2OS Human Bone derived cells (Osteosarcoma) are grown in McCoy's 5A Medium (Modified), with L-glutamine (GIBCO Cat No. 16600-082)+1% Pen-Strep+5% FBS) plated at 1×10^7 cells/T175 cm flask. The next day, the cells are co-transfected overnight with the following plasmids: (a) Test reporter (16×TCF-TK-FireFly-Luci), (b) Internal Control Reporter (TK-Renilla-Luci), (c) Wnt3a and (d) Dkk1. GIBCO's Lipofectamine 2000 and OptiMEM were used for the transfection. After a minimum of 4 hr of transfection at 37° C., the plasmid-transfected cells are trypsinized, counted, and suspended in freezing medium (95% FBS+5% DMSO). The reporter cells are frozen at 1×10^7/ml concentrations, aliquoted into 0.5 ml or 2.5 ml/tube and stored at −70° C.
The following day, test compounds are added under HTS setup by Plate Track into 384 well plates (white, TC treated, Falcon plate) such that the final concentration of the compounds in 20 μL/well cell will be 5 μg/ml (final concentration of DMSO=0.25% and final compound concentration=20 μM). Vials of frozen reporter cells are thawed by warming the vial in a 37° C. water bath for 60-120 seconds with some shaking until the cells formed a suspension. The thawed cells are transferred into a cold 50 ml (or larger) tube and mixed well by gentle pipetting. The appropriate amount of cold Phenol Red Free RPMI medium-1640 (GIBCO, Cat # 11835-030) with L-glutamine is added, both with ˜5% FBS (GIBCO-BRL, Cat. # 16000-044), so that 20 μl of the final cell suspension will contain ˜5,000 cells. The cell dilution is done such that the final concentration of FBS was ˜5%. Diluted cells (20 μl) are added into each well in a 384 well plate. The plate is incubated at 37° C. under 5% CO2 for ˜20 h. Bright-Glo substrate, 2.5 μl/well is added, and the Fire Fly Luciferase is measured using VLUX (60 second exposure) immediately after the substrate was added. Test compounds are dissolved in DMSO (100%) and added to specified wells. Raw luciferase signal data obtained as relative luminescence units (RLUs) for the test compounds are normalized to the signal of the mean of the sample reporter cell plate with DMSO.
Active compounds have TCF-luciferase ratios of 2.5 fold or greater over DMSO. All compounds show a signal increase of at least 10% compared to a signal with only DMSO added.
A=MAX FOLD Induction/DMSO CONTROL
B=TCF ACTIVITY/DMSO CONTROL Fold induction @ 2.0 uM C=TCF ACTIVITY/DMSO CONTROL Fold induction @ 20.0 uM

## N#Cc1ccc(-c2nc3c(-c4ccc5ccccc5c4)ccnc3n2C2CCNCC2)cc1 [4-[7-(2-naphthyl)-3-piperidin-4-yl-3H-imidazo[4,5-b]pyridin-2-yl]benzonitrile]
  fold induction at 2 µM: 1.58

## COc1cccc(-c2nc3c(-c4ccc5ccccc5c4)ccnc3n2C2CCNCC2)c1 [2-(3-methoxyphenyl)-7-(2-naphthyl)-3-piperidin-4-yl-3H-imidazo[4,5-b]pyridine]
  fold induction at 2 µM: 1.25

## Oc1cccc(-c2nc3c(-c4ccc5ccccc5c4)ccnc3n2C2CCNCC2)c1O [3-[7-(2-naphthyl)-3-piperidin-4-yl-3H-imidazo[4,5-b]pyridin-2-yl]benzene-1,2-diol]
  fold induction at 2 µM: 1.33

## c1ccc2cc(-c3cnc4c(c3)nc(-c3c[nH]c5ccccc35)n4C3CCNCC3)ccc2c1 [2-(1H-indol-3-yl)-6-(2-naphthyl)-3-piperidin-4-yl-3H-imidazo[4,5-b]pyridine]
  fold induction at 2 µM: 1.11

## Fc1ccccc1-c1nc2cc(-c3ccc4ccccc4c3)cnc2n1C1CCNCC1 [2-(2-fluorophenyl)-6-(2-naphthyl)-3-piperidin-4-yl-3H-imidazo[4,5-b]pyridine]
  fold induction at 2 µM: 1.29

## Cn1cc(-c2nc3cc(-c4ccc5ccccc5c4)cnc3n2C2CCNCC2)c2ccccc21 [2-(1-methyl-1H-indol-3-yl)-6-(2-naphthyl)-3-piperidin-4-yl-3H-imidazo[4,5-b]pyridine]
  fold induction at 2 µM: 1.04

## CC(C)NC(=O)N1CCC(n2c(=O)[nH]c3c(-c4ccc5ccccc5c4)ccnc32)CC1 [N-isopropyl-4-[7-(2-naphthyl)-2-oxo-1,2-dihydro-3H-imidazo[4,5-b]pyridin-3-yl]piperidine-1-carboxamide]
  fold induction at 2 µM: 1.42
  fold induction at 20 µM: 1.1

## Cc1cccc(-c2nc3cc(-c4ccc5ccccc5c4)cnc3n2C2CCNCC2)c1 [2-(3-methylphenyl)-6-(2-naphthyl)-3-piperidin-4-yl-3H-imidazo[4,5-b]pyridine]
  fold induction at 2 µM: 1.33

## CCCc1nc2cc(-c3ccc4ccccc4c3)cnc2n1C1CCNCC1 [6-(2-naphthyl)-3-piperidin-4-yl-2-propyl-3H-imidazo[4,5-b]pyridine]
  fold induction at 2 µM: 1.38
  fold induction at 20 µM: 0.01

## O=[N+]([O-])c1ccccc1-c1nc2c(-c3ccc4ccccc4c3)ccnc2n1C1CCNCC1 [7-(2-naphthyl)-2-(2-nitrophenyl)-3-piperidin-4-yl-3H-imidazo[4,5-b]pyridine]
  fold induction at 2 µM: 1.14

## COc1ccccc1-c1nc2cc(-c3ccc4ccccc4c3)cnc2n1C1CCNCC1 [2-(2-methoxyphenyl)-6-(2-naphthyl)-3-piperidin-4-yl-3H-imidazo[4,5-b]pyridine]
  fold induction at 2 µM: 1.37
  fold induction at 20 µM: 0.01

## CC(C)(C)c1ccc(-c2nc3cc(-c4ccc5ccccc5c4)cnc3n2C2CCNCC2)cc1 [2-(4-tert-butylphenyl)-6-(2-naphthyl)-3-piperidin-4-yl-3H-imidazo[4,5-b]pyridine]
  fold induction at 2 µM: 1.13

## COc1cccc(-c2nc3cc(-c4ccc5ccccc5c4)cnc3n2C2CCNCC2)c1 [2-(3-methoxyphenyl)-6-(2-naphthyl)-3-piperidin-4-yl-3H-imidazo[4,5-b]pyridine]
  fold induction at 2 µM: 0.97

## FC(F)(F)c1cccc(Oc2cccc(-c3nc4c(-c5ccc6ccccc6c5)ccnc4n3C3CCNCC3)c2)c1 [7-(2-naphthyl)-3-piperidin-4-yl-2-{3-[3-(trifluoromethyl)phenoxy]phenyl}-3H-imidazo[4,5-b]pyridine]
  fold induction at 2 µM: 1.29

## c1ccc2cc(-c3ccnc4c3nc(-c3ccc5c(c3)OCCO5)n4C3CCNCC3)ccc2c1 [2-(2,3-dihydro-1,4-benzodioxin-6-yl)-7-(2-naphthyl)-3-piperidin-4-yl-3H-imidazo[4,5-b]pyridine]
  fold induction at 2 µM: 1.18

## Clc1ccccc1-c1nc2c(-c3ccc4ccccc4c3)ccnc2n1C1CCNCC1 [2-(2-chlorophenyl)-7-(2-naphthyl)-3-piperidin-4-yl-3H-imidazo[4,5-b]pyridine]
  fold induction at 2 µM: 1.36

## CCCCc1nc2cc(-c3ccc4ccccc4c3)cnc2n1C1CCNCC1 [2-butyl-6-(2-naphthyl)-3-piperidin-4-yl-3H-imidazo[4,5-b]pyridine]
  fold induction at 2 µM: 1.21

## c1ccc2cc(-c3ccnc4c3nc(-c3ncc[nH]3)n4C3CCNCC3)ccc2c1 [2-(1H-imidazol-2-yl)-7-(2-naphthyl)-3-piperidin-4-yl-3H-imidazo[4,5-b]pyridine]
  fold induction at 2 µM: 1.42

## O=C(N1CCC(n2cnc3c(-c4ccc5ccccc5c4)ccnc32)CC1)C(F)(F)F [7-(2-naphthyl)-3-[1-(trifluoroacetyl)piperidin-4-yl]-3H-imidazo[4,5-b]pyridine]
  fold induction at 2 µM: 1.58
  fold induction at 20 µM: 0.39

## Cc1nc[nH]c1-c1nc2c(-c3ccc4ccccc4c3)ccnc2n1C1CCNCC1 [2-(4-methyl-1H-imidazol-5-yl)-7-(2-naphthyl)-3-piperidin-4-yl-3H-imidazo[4,5-b]pyridine]
  fold induction at 2 µM: 1.31

## CCc1nc2cc(-c3ccc4ccccc4c3)cnc2n1C1CCNCC1 [2-ethyl-6-(2-naphthyl)-3-piperidin-4-yl-3H-imidazo[4,5-b]pyridine]
  fold induction at 2 µM: 1.27
  fold induction at 20 µM: 0.78

## O=[N+]([O-])c1cc(-c2nc3c(-c4ccc5ccccc5c4)ccnc3n2C2CCNCC2)ccc1N1CCOCC1 [2-(4-morpholin-4-yl-3-nitrophenyl)-7-(2-naphthyl)-3-piperidin-4-yl-3H-imidazo[4,5-b]pyridine]
  fold induction at 2 µM: 1.44
  fold induction at 20 µM: 0.06

## c1ccc2cc(-c3ccnc4c3nc(-c3csc5ccccc35)n4C3CCNCC3)ccc2c1 [2-(1-benzothien-3-yl)-7-(2-naphthyl)-3-piperidin-4-yl-3H-imidazo[4,5-b]pyridine]
  fold induction at 2 µM: 1.28

## Cc1nc2cc(-c3ccc4ccccc4c3)cnc2n1C1CCNCC1 [2-methyl-6-(2-naphthyl)-3-piperidin-4-yl-3H-imidazo[4,5-b]pyridine]
  fold induction at 2 µM: 1.06
  fold induction at 20 µM: 1.17

## c1ccc2cc(-c3cnc4c(c3)nc(C3CCCCC3)n4C3CCNCC3)ccc2c1 [2-cyclohexyl-6-(2-naphthyl)-3-piperidin-4-yl-3H-imidazo[4,5-b]pyridine]
  fold induction at 2 µM: 1.24
  fold induction at 20 µM: 0.01

## FC(F)(F)Oc1ccccc1-c1nc2c(-c3ccc4ccccc4c3)ccnc2n1C1CCNCC1 [7-(2-naphthyl)-3-piperidin-4-yl-2-[2-(trifluoromethoxy)phenyl]-3H-imidazo[4,5-b]pyridine]
  fold induction at 2 µM: 1.88

## O=[N+]([O-])c1ccc(O)cc1-c1nc2c(-c3ccc4ccccc4c3)ccnc2n1C1CCNCC1 [3-[7-(2-naphthyl)-3-piperidin-4-yl-3H-imidazo[4,5-b]pyridin-2-yl]-4-nitrophenol]
  fold induction at 2 µM: 1.4
  fold induction at 20 µM: 0.98

## FC(F)(F)c1ccccc1-c1nc2c(-c3ccc4ccccc4c3)ccnc2n1C1CCNCC1 [7-(2-naphthyl)-3-piperidin-4-yl-2-[2-(trifluoromethyl)phenyl]-3H-imidazo[4,5-b]pyridine]
  fold induction at 2 µM: 1.72

## c1coc(-c2nc3c(-c4ccc5ccccc5c4)ccnc3n2C2CCNCC2)c1 [2-(2-furyl)-7-(2-naphthyl)-3-piperidin-4-yl-3H-imidazo[4,5-b]pyridine]
  fold induction at 2 µM: 1.82
  fold induction at 20 µM: 0.01

## CCCCc1nc2c(-c3ccc4ccccc4c3)ccnc2n1C1CCNCC1 [2-butyl-7-(2-naphthyl)-3-piperidin-4-yl-3H-imidazo[4,5-b]pyridine]
  fold induction at 2 µM: 1.19
